Source: patent publication US8791102B2, “Acetanilide sphingosine-1-phosphate receptor antagonists” (Exelixis, Inc., priority 2008, dated 2014)

target: T1, human S1P1 receptors (Homo sapiens, UniProt P21453); test: S1P1R antagonist assay (fluorescent membrane potential dye, cAMP readout); type: cell-based; settings: HEK293 cells expressing human S1P1 receptors and CNG channel; 500 nM NECA; S1P1R agonist 10 nM; 90 minutes; read-out: EC50 or IC50 value
T1 construct: host or cells: HEK293
T1 sequence (P21453 whole entry): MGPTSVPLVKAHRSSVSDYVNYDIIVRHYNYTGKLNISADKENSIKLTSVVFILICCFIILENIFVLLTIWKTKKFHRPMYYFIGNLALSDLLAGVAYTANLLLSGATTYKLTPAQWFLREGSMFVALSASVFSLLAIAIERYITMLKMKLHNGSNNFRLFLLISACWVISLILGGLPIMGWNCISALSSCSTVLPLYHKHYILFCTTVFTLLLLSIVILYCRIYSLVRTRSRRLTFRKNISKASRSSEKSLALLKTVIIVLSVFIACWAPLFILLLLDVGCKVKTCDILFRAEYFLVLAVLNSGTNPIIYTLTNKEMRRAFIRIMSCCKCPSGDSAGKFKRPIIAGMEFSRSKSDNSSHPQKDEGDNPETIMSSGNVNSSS

Row | Structure (SMILES) | IC50 [nM]
1 | CC(=O)Nc1nc(C)c(S(=O)(=O)NC(COCc2ccccc2)C(=O)Nc2ccc(Oc3ccccc3)cc2)s1 (centres unmarked) [Compound 305, N-(2-oxo-1-{[(phenylmethyl)oxy]methyl}-2-{[4-(phenyloxy)phenyl]amino}ethyl)-2-acetylamino-4-methylthiazol-5-ylsulfonamide] | ≤ 300
2 | CSc1ccc(C(=O)NC(COCc2ccccc2)C(=O)Nc2ccc(Oc3ccccc3)cc2)cc1 (centres unmarked) [Compound 306, 4-(methylthio)-N-(2-oxo-1-{[(phenylmethyl)oxy]methyl}-2-{[4-(phenyloxy)phenyl]amino}ethyl)benzamide] | > 1000
3 | CSCC(=O)NC(COCc1ccccc1)C(=O)Nc1ccc(Oc2ccccc2)cc1 (centres unmarked) [Compound 307, N-(2-oxo-1-{[(phenylmethyl)oxy]methyl}-2-{[4-(phenyloxy)phenyl]amino}ethyl)-2-(methylthio)acetamide] | ≤ 300
4 | COc1ccc(F)cc1C(=O)NC(COCc1ccccc1)C(=O)Nc1ccc(Oc2ccccc2)cc1 (centres unmarked) [Compound 308, 5-fluoro-2-(methyloxy)-N-(2-oxo-1-{[(phenylmethyl)oxy]methyl}-2-{[4-(phenyloxy)phenyl]amino}ethyl)benzamide] | > 1000
5 | COc1ccc(C(=O)NC(COCc2ccccc2)C(=O)Nc2ccc(Oc3ccccc3)cc2)c(C)c1 (centres unmarked) [Compound 309, 2-methyl-4-(methyloxy)-N-(2-oxo-1-{[(phenylmethyl)oxy]methyl}-2-{[4-(phenyloxy)phenyl]amino}ethyl)benzamide] | > 1000
6 | CC(=O)CCCC(=O)NC(COCc1ccccc1)C(=O)Nc1ccc(Oc2ccccc2)cc1 (centres unmarked) [Compound 310, 5-oxo-N-(2-oxo-1-{[(phenylmethyl)oxy]methyl}-2-{[4-(phenyloxy)phenyl]amino}ethyl)hexanamide] | > 1000
7 | Cc1cc(Br)ccc1C(=O)NC(COCc1ccccc1)C(=O)Nc1ccc(Oc2ccccc2)cc1 (centres unmarked) [Compound 311, 4-bromo-2-methyl-N-(2-oxo-1-{[(phenylmethyl)oxy]methyl}-2-{[4-(phenyloxy)phenyl]amino}ethyl)benzamide] | > 1000
8 | O=C(CCC(=O)c1cccs1)NC(COCc1ccccc1)C(=O)Nc1ccc(Oc2ccccc2)cc1 (centres unmarked) [Compound 312, 4-oxo-N-(2-oxo-1-{[(phenylmethyl)oxy]methyl}-2-{[4-(phenyloxy)phenyl]amino}ethyl)-4-(2-thienyl)butanamide] | > 1000
9 | O=C(CSc1ccccc1)NC(COCc1ccccc1)C(=O)Nc1ccc(Oc2ccccc2)cc1 (centres unmarked) [Compound 313, N-(2-oxo-1-{[(phenylmethyl)oxy]methyl}-2-{[4-(phenyloxy)phenyl]amino}ethyl)-2-(phenylthio)acetamide] | 300 to 1000
10 | O=C(NC(COCc1ccccc1)C(=O)Nc1ccc(Oc2ccccc2)cc1)c1ccccc1-n1cccc1 (centres unmarked) [Compound 314, N-(2-oxo-1-{[(phenylmethyl)oxy]methyl}-2-{[4-(phenyloxy)phenyl]amino}ethyl)-2-(1H-pyrrol-1-yl)benzamide] | > 1000
11 | COCCOCCOCC(=O)NC(COCc1ccccc1)C(=O)Nc1ccc(Oc2ccccc2)cc1 (centres unmarked) [Compound 315, N-(2-oxo-1-{[(phenylmethyl)oxy]methyl}-2-{[4-(phenyloxy)phenyl]amino}ethyl)-2-[2-(methoxy)ethoxy]ethoxyacetamide] | > 1000
12 | COc1cc(OC)cc(C(=O)NC(COCc2ccccc2)C(=O)Nc2ccc(Oc3ccccc3)cc2)c1 (centres unmarked) [Compound 316, 3,5-bis(methyloxy)-N-(2-oxo-1-{[(phenylmethyl)oxy]methyl}-2-{[4-(phenyloxy)phenyl]amino}ethyl)benzamide] | > 1000
13 | O=C(CCC1CCCCC1)NC(COCc1ccccc1)C(=O)Nc1ccc(Oc2ccccc2)cc1 (centres unmarked) [Compound 317, N-(2-oxo-1-{[(phenylmethyl)oxy]methyl}-2-{[4-(phenyloxy)phenyl]amino}ethyl)-3-cyclohexylpropanamide] | > 1000
14 | O=C(CCCC(=O)c1ccccc1)NC(COCc1ccccc1)C(=O)Nc1ccc(Oc2ccccc2)cc1 (centres unmarked) [Compound 318, 5-oxo-N-(2-oxo-1-{[(phenylmethyl)oxy]methyl}-2-{[4-(phenyloxy)phenyl]amino}ethyl)-5-phenylpentanamide] | > 1000
